# Target: BTK (Homo sapiens (Human), UniProt Q06187)
# Experiment: Btk kinase assay (HTRF)
# Type: biochemical
# Conditions: [ATP]=80 μM, BTK=3.4 nM; read-out: BTK Inhibition
# Outline: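 BTK (3.4 nM) incubated 1 h with inhibitor, 80 μM ATP and 1 μM peptide substrate in 50 mM HEPES pH 7.0 with BSA and orthovanadate. Reaction stopped with EDTA plus Eu-antibody/XL665; HTRF 665/615 ratio read after 1 h, IC50 calculated relative to no-inhibitor and no-enzyme controls.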
# Sequence of BTK (Q06187 whole entry, species assumed): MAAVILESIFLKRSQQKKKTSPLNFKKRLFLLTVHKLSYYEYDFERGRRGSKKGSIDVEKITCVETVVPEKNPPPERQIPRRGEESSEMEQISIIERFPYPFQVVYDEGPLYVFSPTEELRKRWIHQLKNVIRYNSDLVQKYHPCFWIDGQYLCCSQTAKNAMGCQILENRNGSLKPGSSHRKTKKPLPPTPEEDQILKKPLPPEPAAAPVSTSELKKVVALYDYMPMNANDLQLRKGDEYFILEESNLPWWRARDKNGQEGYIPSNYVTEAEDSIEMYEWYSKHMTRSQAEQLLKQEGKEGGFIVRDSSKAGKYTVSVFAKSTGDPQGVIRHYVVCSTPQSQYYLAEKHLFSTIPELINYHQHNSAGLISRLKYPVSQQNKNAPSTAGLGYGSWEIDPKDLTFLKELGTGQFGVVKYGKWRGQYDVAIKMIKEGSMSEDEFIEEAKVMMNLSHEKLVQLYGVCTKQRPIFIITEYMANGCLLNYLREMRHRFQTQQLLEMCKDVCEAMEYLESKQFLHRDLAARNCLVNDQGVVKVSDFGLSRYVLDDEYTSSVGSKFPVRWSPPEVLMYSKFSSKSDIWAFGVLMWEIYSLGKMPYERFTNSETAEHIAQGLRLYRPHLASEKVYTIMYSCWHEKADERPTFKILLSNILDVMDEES
row,SMILES,IC50
1,"C=CC(=O)Nc1cccc(-n2c(=O)n(-c3ccc(Oc4ccnc(C(=O)NC)c4)cc3)c3cnccc32)c1 [Example 115, 4-(4-(1-(3-acrylamidophenyl)-2-oxo-1H-imidazo[4,5-c]pyridin-3(2H)-yl)phenoxy)-N-methylpicolinamide]",100 to 1000 nM
2,"C=CC(=O)Nc1cccc(-n2c(=O)n(-c3ccc(Oc4cccc(Cl)c4F)cc3)c3cnccc32)c1 [Example 54, N-(3-(3-(4-(3-chloro-2-fluorophenoxy)phenyl)-2-oxo-2,3-dihydro-1H-imidazo[4,5-c]pyridin-1-yl)phenyl)acrylamide]",10 to 100 nM
3,"C=CC(=O)N1CC[C@@H](n2c(=O)n(-c3ccc(Oc4ccc(C(F)(F)F)cc4)cc3)c3cnccc32)C1 [Example 36, (R)-1-(1-acryloylpyrrolidin-3-yl)-3-(4-(4-(trifluoromethyl)phenoxy)phenyl)-1H-imidazo[4,5-c]pyridin-2(3H)-one]",100 to 1000 nM
4,"C=CC(=O)N1CCC[C@@H](n2c(=O)n(-c3ccc(Oc4cccc(C)c4)c(F)c3)c3cnccc32)C1 [Example 105, (R)-1-(1-acryloylpiperidin-3-yl)-3-(3-fluoro-4-(m-tolyloxy)phenyl)-1H-imidazo[4,5-c]pyridin-2(3H)-one]",10 to 100 nM
5,"C=CC(=O)N1CC[C@@H](n2c(=O)n(-c3cccc(Oc4ccc(OC)cc4)c3)c3cnccc32)C1 [Example 17, (R)-1-(1-acryloylpyrrolidin-3-yl)-3-(3-(4-methoxyphenoxy)phenyl)-1H-imidazo[4,5-c]pyridin-2(3H)-one]",100 to 1000 nM
6,C=CC(=O)Nc1cccc(-n2c(=O)n(-c3ccc(Oc4cccc(Cl)c4)c(F)c3)c3cnccc32)c1 [Example 50],100 to 1000 nM

# Further lines, results first:
row,IC50,SMILES
1,≤ 10 nM,"C=CC(=O)N1CCC[C@@H](n2c(=O)n(-c3ccc(Oc4cccc(OC)c4F)cc3)c3cncc(C)c32)C1 [Example 168, (R)-1-(1-acryloylpiperidin-3-yl)-3-(4-(2-fluoro-3-methoxyphenoxy)phenyl)-7-methyl-1H-imidazo[4,5-c]pyridin-2(3H)-one]"
2,100 to 1000 nM,"C=CC(=O)Nc1cccc(-n2c(=O)n(-c3ccc(OCc4ccc(Cl)cc4F)cc3)c3cnccc32)c1 [Example 245, N-(3-(3-(4-((4-chloro-2-fluorobenzyl)oxy)phenyl)-2-oxo-2,3-dihydro-1H-imidazo[4,5-c]pyridin-1-yl)phenyl)acrylamide]"
3,100 to 1000 nM,"C=CC(=O)N1CC[C@@H](n2c(=O)n(-c3ccc(OCc4ccccc4F)cc3)c3cnccc32)C1 [Example 216, (R)-1-(1-acryloylpyrrolidin-3-yl)-3-(4-((2-fluorobenzyl)oxy)phenyl)-1H-imidazo[4,5-c]pyridin-2(3H)-one]"
4,≥ 10000 nM,"C=CC(=O)N1CC[C@@H](n2c(=O)n(-c3ccc(Oc4ccccc4)cc3)c3c([N+](=O)[O-])cccc32)C1 [Example 189, (R)-1-(1-acryloylpyrrolidin-3-yl)-4-nitro-3-(4-phenoxyphenyl)-1H-benzo[d]imidazol-2(3H)-one]"
5,100 to 1000 nM,"CN(C/C=C/C(=O)N1CC[C@@H](n2c(=O)n(-c3ccc(Oc4ccccc4)cc3)c3cnccc32)C1)C1CC1 [Example 187, (R,E)-1-(1-(4-(cyclopropyl(methyl)amino)but-2-enoyl)pyrrolidin-3-yl)-3-(4-phenoxyphenyl)-1H-imidazo[4,5-c]pyridin-2(3H)-one]"
6,10 to 100 nM,"C=CC(=O)Nc1cccc(-n2c(=O)n(-c3ccc(Oc4ccc(Cl)c(Cl)c4)cc3)c3cnccc32)c1 [Example 159, N-(3-(3-(4-(3,4-dichlorophenoxy)phenyl)-2-oxo-2,3-dihydro-1H-imidazo[4,5-c]pyridin-1-yl)phenyl)acrylamide]"
7,10 to 100 nM,"C=CC(=O)Nc1cccc(-n2c(=O)n(-c3ccc(Oc4cccc(C)c4C)cc3)c3cnccc32)c1 [Example 147, N-(3-(3-(4-(2,3-dimethylphenoxy)phenyl)-2-oxo-2,3-dihydro-1H-imidazo[4,5-c]pyridin-1-yl)phenyl)acrylamide]"

# — patent US10358446B2, “Bruton's tyrosine kinase inhibitors” (Zibo Biopolar Changsheng Pharmaceutical Co. Ltd., priority 2015, dated 2019)
